Test in all cases: NCI tumour cell line growth inhibition, 48 h
Test [1] concerns NCI-H226 lung.
The test system of test [2] is OVCAR-5 ovarian.
The subject of test [3] is SF-539 CNS.
For test [4], the system named is SK-MEL-2 melanoma.
Test [5] deals with SK-OV-3 ovarian.
For test [6], the system named is SNB-19 CNS.
The test system of test [7] is UO-31 renal.
The subject of test [8] is DU-145 prostate.
Test [9] concerns PC-3 prostate.
Test [10] relates to BT-549 breast.

“And” between values parts separate entries of the source, which are not always exact repeats. Identical values can stand only once.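 Tested at 5 concentrations; 48 h exposure; 96-well plates; endpoints linearly interpolated, else capped at highest concentration. Abbreviation: GI50, concentration required for 50% inhibition of growth. At the TGI there is no net growth.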 Bounds are passed on as bounds.

On to `Cc1cc(Cl)ccc1N=C1NC(=O)C(CC(=O)Nc2cccc(Cl)c2)S1` (stereo unspecified), for which the TGI in [1] was greater than 100 µM; in [2] it was 87.4 µM; in test [3], greater than 100 µM; in test [4], greater than 100 µM; in test [5], greater than 100 µM; in test [6], greater than 100 µM. In addition, the TGI in [7] was greater than 100 µM.
In the case of `O=P(CN1CCOCC1)(c1ccccc1)c1ccccc1`, the TGI in [2], in test [3], in test [4], in test [5], in test [6] and in test [7] was greater than 100 µM in each case.
Turning to `O=C(Nc1ccn(C2CC(O)C(COC(c3ccccc3)(c3ccccc3)c3ccccc3)O2)c(=O)n1)c1ccccc1` (stereo unspecified), the TGI in [8] came out at 17.8 µM; in test [1], 35.4 µM; in [2], 3.53 µM; in [9] it was 5.35 µM; in [3], 8.49 µM; in [4] it was 7.25 µM. In addition, the figures for the TGI in test [5], in test [6] and in [7] were 28.3 µM, 14.2 µM and 18.7 µM, respectively.
Take `COC(=O)CC1(O)C(=O)OCc2c1cc1n(c2=O)Cc2c-1nc1ccccc1c2OC` (stereo unspecified): the TGI in test [1] is 0.688 µM; in test [2] it was greater than 100 µM; in test [3], 0.681 µM; in test [4], 74.6 µM; in test [5], 17.4 µM; in test [6], 66.2 µM. In test [7], this compound gave a TGI of 30.5 µM.
With `COc1ccc(/C=C/C(=O)c2c(-c3ccccc3)nn(C)c(=O)c2N2CC2C)cc1` (stereo unspecified), the TGI was greater than 100 µM in test [1]; greater than 100 µM in [2]; greater than 100 µM in [3]; 47.6 µM in test [4]; 71.3 µM in test [5]; greater than 100 µM in test [6]. The compound further registered a TGI in test [7] greater than 100 µM.
Regarding `COC(=O)c1c(C(=O)OC)c(-c2ccccc2)n(-c2ccccc2)c(=O)c1-c1ccccc1`, the TGI in test [1], in test [2], in [3], in [5], in test [6] and in test [7] was greater than 100 µM throughout.
`CN1C2C=CC(=O)C1C1C(=O)N(c3ccccc3)C(=O)C12` (stereo unspecified): the GI50 in test [8] was 2.34 µM; in test [1], 17.6 µM; in test [2] it was 5.95 µM; in test [9], 5.8 µM; in test [3], 4.87 µM; in test [4], 8.12 µM. For the same compound, the GI50 is 26.7 µM in test [5], 13.3 µM in [6] and 3.49 µM in [7]. For the same compound, the TGI is 6.69 µM in test [8]; 57.3 µM in test [1]; 21.6 µM in [2]; 47.3 µM in test [9]; 17.7 µM in test [3]; 42 µM in test [4]. For the same compound, the TGI was greater than 100 µM in test [5], 29.5 µM in test [6] and 17.9 µM in [7].
With `Cc1nc2c(C)ccc([N+](=O)[O-])c2c(NCCCN(C)C)c1C`, the TGI is greater than 100 µM in test [8]; greater than 100 µM in test [1]; greater than 100 µM in test [2]; greater than 47.9 µM in test [9]; greater than 100 µM in test [3]; greater than 70.6 µM in test [4]. In addition, the TGI in test [5], in test [6] and in [7] was greater than 100 µM throughout.
For `CC(C)c1ccc(O)c(Cc2cc(C(C)C)cc(Cc3cc(C(C)C)ccc3O)c2O)c1`, the TGI was found to be 2.93 µM in test [1]; 3.13 µM in test [2]; 3.06 µM in test [4]; 3.05 µM in [5]; 3.12 µM in test [6]; 3.04 µM in test [7].
With `CC1[C@@]2(CCC(C)(C)O2)O[C@@H]2C=C3C4CCC5Cc6nc7c(nc6C[C@@]5(C)C4C[C@H](O)[C@@]3(C)[C@]12O)CC1CCC2C3=C[C@H]4O[C@@]5(O[C@@](C)(CO)C[C@@H]5O)C(C)[C@@]4(O)[C@]3(C)[C@@H](O)CC2[C@]1(C)C7` (stereo partly specified), the GI50 in test [1] was 0.0107 µM; in [2] it was 0.00586 µM; in test [3], 0.00303 µM; in test [4] it was 0.00444 µM; in [5], 0.00178 µM; in test [6] it was 0.041 µM. Besides, the TGI in test [1] is 0.411 µM and 0.806 µM; in test [3], 0.0418 µM and 0.0415 µM; in [6], 0.808 µM and 0.82 µM; in [7], 0.114 µM.
Take `O=C(/C=C/c1ccccc1)c1ccc(Cl)cc1Cl`: the TGI in [1] was 89.9 µM; in test [2] it was 39.5 µM; in test [3], 37.9 µM; in [5] it was 85.3 µM; in [6] it was 65.2 µM; in test [7] it was greater than 100 µM.
With `Cc1cc(N(CCC#N)CCC#N)ccc1/C=C(\NC(=O)/C=C/c1ccccc1)C(=O)Nc1ccccc1Cl`, the TGI in [1], in [2], in test [3], in test [4], in test [6] and in test [7] was greater than 100 µM each time.
For `Fc1ccccc1CN1COc2c(cc(Cl)c3cccnc23)C1`, the TGI in test [8] is 16.4 µM; in test [1], 2.97 µM; in test [2], 15.3 µM; in test [9], 10.6 µM; in [3], 10.6 µM; in [4] it was 19.1 µM. The TGI was 19.6 µM in test [5], 9.23 µM in test [6] and 17.7 µM in test [7].
As for `CC1NOC(=O)C1N=Nc1cccc(Cl)c1` (stereo unspecified), the TGI in test [1] is greater than 100 µM; in [2] it was greater than 100 µM; in test [3], greater than 100 µM; in [4], 47.4 µM; in test [5], 96.1 µM; in test [6], greater than 100 µM. The TGI in [7] was greater than 100 µM.
As to `C[N+](C)(C)CC1CCC(C[N+](C)(C)C)C1=NO` (stereo unspecified), the TGI in [1], in [3], in [4], in [5], in test [6] and in [7] was greater than 100 µM in each case.
Take `O=C(N/C(=C\c1ccc([N+](=O)[O-])cc1)c1nc2ccccc2s1)c1ccccc1`: the TGI in test [2] was greater than 100 µM; in test [3], 55.1 µM; in test [4], 80.5 µM; in test [5], greater than 100 µM; in test [6], greater than 100 µM; in [7], 56.3 µM.
For `COC(=O)C1=NC(=S)NC(c2ccccc2)C1c1nc2ccccc2o1` (stereo unspecified), the TGI in test [1], in test [2], in test [3], in test [4], in [5] and in test [6] was greater than 50 µM each time. Moreover, in test [7], the TGI was greater than 50 µM.
As for `CC(C)=C[C@@H]1C[C@H](C)[C@H]2CC[C@H](C)c3c(O)c(OC4OC(C)C(O)C(O)C4O)c(C)c1c32` (stereo partly specified), the GI50 in test [10] was 18.9 µM; in test [8], 10.9 µM; in test [1], 17.3 µM; in test [2], 10.5 µM; in [3] it was 17.9 µM; in test [4], 19.8 µM. For the same compound, the GI50 in test [5] is 18.9 µM; in [6], 15.7 µM; in test [7] it was 14.6 µM. Further, the TGI stood at 34.8 µM in [10]; 23.3 µM in test [8]; 33.1 µM in [1]; 23.2 µM in test [2]; 33 µM in test [3]; 35.5 µM in test [4]. Besides, the TGI in test [5] turned out to be 32.9 µM; in [6], 29.2 µM; in test [7], 27.8 µM.
On to `CCCCCCCCCCCCCCCCCc1nc(Cl)nc(Cl)c1Cl`, for which the TGI in [8] is greater than 100 µM; in test [1], 34.6 µM; in test [2] it was greater than 100 µM; in [9] it was greater than 100 µM; in test [3], greater than 100 µM; in [5] it was greater than 100 µM. Further, the TGI in test [6] and in test [7] was greater than 100 µM throughout.
As to `O=C1C(Cl)=C(Nc2ccc(S(=O)(=O)c3ccc(NC4=C(Cl)C(=O)c5ccccc5C4=O)cc3)cc2)C(=O)c2ccccc21`, the GI50 is 1.65 µM in test [10]; 1.91 µM in [8]; 3.1 µM in [1]; 1.92 µM in test [2]; 1.91 µM in test [3]; 2.4 µM in test [5]. The GI50 in test [6] was 3.11 µM; in test [7] it was 1.38 µM. In addition, the TGI in test [10] is 3.24 µM; in [8], 3.69 µM; in [1], 18.6 µM; in test [2] it was 3.81 µM; in test [3] it was 3.71 µM; in test [5] it was 7.94 µM. Also, the TGI in [6] was determined as 13.9 µM; in test [7], 2.85 µM.
With `FC(F)(F)c1ccccc1C1SCc2nc3ccccc3n21` (stereo unspecified), the TGI in [1], in [2], in test [3], in [4], in test [5] and in test [6] was greater than 100 µM in each case. The compound further yielded a TGI in test [7] greater than 100 µM.
Regarding `CCCCCCCCCCCC/C=C\CC[C@@H](O)[C@H](O)CC[C@H](O)[C@@H]1CC[C@@H](CCCCCCCC2=C[C@H](C)OC2=O)O1`, the GI50 in [10] was 12.8 µM; in [1], 13.3 µM; in test [9], 2.22 µM; in [4] it was 12.6 µM; in test [6] it was 9.85 µM; in test [7] it was 12.4 µM. Further, the TGI is 34.3 µM in test [1]; 38.4 µM in test [2]; 16.5 µM in test [9]; 33.4 µM in [4]; 29.3 µM in [6]; 9.26 µM and 41.9 µM in test [7].
Take `Cc1ccc(NCCNCC(C)(C)O)c2c(=O)c3ccc(Cl)cc3sc12`: the GI50 in test [8] was 1.67 µM; in [2] it was 1.47 µM; in test [9] it was 1.35 µM; in [3], 1.44 µM; in test [4] it was 1.59 µM; in test [5], 1.46 µM. Besides, the GI50 in test [6] was 1.67 µM; in [7], 1.03 µM. Moreover, the TGI in test [8] turned out to be 3.08 µM; in [2] it was 2.95 µM; in test [9], 2.71 µM; in test [3], 2.82 µM; in [4] it was 3.28 µM; in test [5] it was 2.98 µM. Moreover, the TGI is 3.27 µM in test [6] and 2.24 µM in [7].
In the case of `CC(=O)CCC1(c2ccccc2)OC(=O)C(C#N)=C1c1ccccc1` (stereo unspecified), the TGI in test [2], in [3], in test [4], in test [5], in test [6] and in [7] was greater than 100 µM in each case.
On to `C/C=C/C=C/c1cc2cc3c(c(O)c2c(=O)[nH]1)C1(CC3)C(O)=c2c(=O)c3c(=O)cc(OC)c(=O)c=3c(=O)c2=C1O` (stereo unspecified), for which the TGI in test [8] is 15.8 µM; in test [1] it was 3.71 µM and 8.42 µM; in test [9], 0.654 µM; in test [3] it was 2.48 µM and 10.6 µM; in test [4], 14.2 µM and 4.86 µM; in [5], 16 µM and 8.75 µM. Moreover, the TGI was 14.5 µM and 13.9 µM in [6]; 16.3 µM and 9.83 µM in [7]. In addition, the GI50 in test [1] is 0.23 µM and 0.895 µM; in [3], 0.363 µM and 2.33 µM; in test [4], 0.249 µM and 0.885 µM; in test [7] it was 0.17 µM and 1.37 µM.
As to `CCOc1ccc(NC(=O)CC2SC(=Nc3ccc(C)cc3)NC2=O)cc1` (stereo unspecified), the TGI in test [2], in test [3], in [5], in test [6] and in [7] was greater than 100 µM each time.
Consider `Cc1cc(NCCCCCCCNc2cc(C)nc3cc(N)ccc23)c2ccc(N)cc2n1`, for which the TGI in test [1] was 78.4 µM; in test [2] it was greater than 100 µM; in test [3], greater than 100 µM; in test [4] it was greater than 100 µM; in [5], greater than 100 µM; in [6], greater than 100 µM. This compound yielded a TGI in test [7] greater than 100 µM.
For `Cc1c(Cl)ccc2c1NC(=O)C2(O)CC(=O)c1ccc(Cl)cc1` (stereo unspecified), the TGI in test [1] is greater than 100 µM; in test [2], greater than 100 µM; in test [3], greater than 100 µM; in test [4] it was greater than 64.2 µM; in [5] it was greater than 100 µM; in test [6], greater than 100 µM. This compound also came in with a TGI in test [7] greater than 100 µM.

These data come from PubChem BioAssay (NCI).
